Measurements published in patent publication US6080772A, “Thiazole compounds and methods of modulating signal transduction” (Sugen, Inc., priority 1997, dated 2000).
Read-outs that look alike come from different tables or passages of the source.

Experiments:
insulin receptor (IR) = experiment: Phosphotyrosine enzyme linked immunosorbent assay: pTyr on insulin receptor in NIH3T3 cells over-expressing human IR (H25 cells); conditions: for EC50: read-out: ACTIVITY EC50; for one point determination, effect on PTYR: at 100 μm
primary adipocytes = experiment: Primary adipocyte glucose uptake assay (14C glucose); conditions: test compound 50 mM without insulin, compared to samples containing only insulin (final concentration=100 μm)

Structure (SMILES) | EC50 (insulin receptor (IR); Table II, […], no lot stated) [µM] | response in the primary adipocyte glucose uptake assay compared with the insulin control (primary adipocytes) | other results
Cn1ccnc1Sc1ncc([N+](=O)[O-])s1 [Compound 13, 1-Methyl-2-[(5-nitrothiazol-2-yl)mercapto]imidazole] |  | did not give a response greater than or equal to the insulin control | EC50 (insulin receptor (IR); Table II, LOT 1): 13 µM; EC50 (insulin receptor (IR); Table II, LOT 2): 14 µM
Cn1nnnc1Sc1ncc([N+](=O)[O-])s1 [Compound 15] |  | did not give a response greater than or equal to the insulin control | increase in PTYR (insulin receptor (IR); Table II, at 50 μM, LOT2): 40%; EC50 (insulin receptor (IR); Table II, LOT 1): 8.4 µM
O=[N+]([O-])c1cnc(Sc2nc3ccccc3[nH]2)s1 [Compound 79, 2-[(5-Nitrothiazol-2-yl)mercapto]benzimidazole] |  | did not give a response greater than or equal to the insulin control | EC50 (insulin receptor (IR); Table III, […]): 23 µM
Cc1nccc(C(F)(F)F)c1-c1nnc(Sc2ncc([N+](=O)[O-])s2)o1 [Compound 86, 2-[2-Methyl-4-(trifluoromethyl)pyrid-3-yl]-5-[(5-nitrothiazol-2-yl)mercapto]-1,3,4-oxadiazole] |  | did not give a response greater than or equal to the insulin control | increase in PTYR (insulin receptor (IR); Table II, at 25 μM): 59%
Cn1c(O)nnc1Sc1ncc([N+](=O)[O-])s1 [Compound 99] |  | did not give a response greater than or equal to the insulin control | one point determination, effect on PTYR (insulin receptor (IR); Table II): no effect
CCCCCn1c(O)nnc1Sc1ncc([N+](=O)[O-])s1 [Compound 100] |  | did not give a response greater than or equal to the insulin control | one point determination, effect on PTYR (insulin receptor (IR); Table II): no effect
O=[N+]([O-])c1cnc(Sc2nc3cnccc3[nH]2)s1 [Compound 101] | 7 to 15 | did not give a response greater than or equal to the insulin control | 

Continued, in another order:

EC50 (insulin receptor (IR); Table II, […], no lot stated) [µM] | Structure (SMILES) | response in the primary adipocyte glucose uptake assay compared with the insulin control (primary adipocytes) | other results
8 | Nc1nnc(Sc2ncc([N+](=O)[O-])s2)s1 [Compound 14] | did not give a response greater than or equal to the insulin control | 
8.8 | O=[N+]([O-])c1cnc(Sc2ncc(C(F)(F)F)cn2)s1 [Compound 83, 2-[(5-Nitrothiazol-2-yl)mercapto]-5-(trifluoromethyl)pyrimidine] | did not give a response greater than or equal to the insulin control | 
> 100 | CC(C)n1c(Sc2ncc([N+](=O)[O-])s2)nc2ccccc21 [Compound 94, 1-Isopropyl-2-[(5-nitrothiazol-2-yl)mercapto]benzimidazole] | did not give a response greater than or equal to the insulin control | 
> 100 | CC(C)n1c(Sc2ncc([N+](=O)[O-])s2)nc2cc(C(F)(F)F)ccc21 [Compound 95, 1-Isopropyl-2-[(5-nitrothiazol-2-yl)mercapto]-5-(trifluoromethyl)benzimidazole] | did not give a response greater than or equal to the insulin control | 
